In ChEMBL document CHEMBL6114992, “Design, synthesis, biological evaluation, and mechanism of action of new pyrazines as anticancer agents in vitro and in vivo” (Bioorg Med Chem, 2025):

Experiments:
Type in all cases: functional, cell-based
U-937 = assay: Antiproliferative activity against human U-937 cells assessed as inhibition of cell growth incubated for 72 hrs by MTT assay; settings: U-937, 72 h
SK-OV-3 = assay: Antiproliferative activity against human SK-OV-3 cells assessed as inhibition of cell growth incubated for 72 hrs by MTT assay; settings: SK-OV-3, 72 h
KG-1 = assay: Antiproliferative activity against human KG-1 cells assessed as inhibition of cell growth incubated for 72 hrs by MTT assay; settings: KG-1, 72 h
THP-1 = assay: Antiproliferative activity against human THP-1 cells assessed as inhibition of cell growth incubated for 72 hrs by MTT assay; settings: THP-1, 72 h
[1] = Antiproliferative activity against human SK-OV-3/Taxol cells assessed as inhibition of cell growth incubated for 72 hrs by MTT assay; settings: SK-OV-3, 72 h

Compound | IC50 (U-937) [µM] | IC50 (SK-OV-3) [µM] | IC50 (THP-1) [µM] | IC50 (KG-1) [µM] | IC50 [1] [µM]
O=C(/C=C/c1ccccc1F)c1cnccn1 | 11.9 | 3.88 | 11.9 | 9.89 | 6.18
CCc1nccnc1C(=O)/C=C/c1ccc(Cl)cc1Cl | 9.99 | 6.99 | 8.28 | 5.99 | 6.81
O=C(/C=C/c1cccc([N+](=O)[O-])c1)c1cnccn1 | 8 | > 50 | 5.29 | 10.3 | > 50
O=C(/C=C/c1ccc(Br)cc1)c1cnccn1 | > 50 | > 50 | 23.7 | 20.4 | > 50
Cc1nccnc1C(=O)/C=C/c1ccc(Br)cc1 | 11.3 | 12.7 | 31.1 | 20.9 | 13.7
N#Cc1ccc(/C=C/C(=O)c2cnccn2)cc1 | 23.2 | 11.2 | 16.2 | 15.9 | 12.6
CCc1nccnc1C(=O)/C=C/c1ccc(N(CC)CC)cc1 | 30.4 | > 50 | 29.5 | 24.7 | > 50
O=C(/C=C/c1ccccc1Cl)c1cnccn1 | 11.4 | 7.18 | 11.8 | 8.34 | 10.2
CCc1nccnc1C(=O)/C=C/c1ccc(-c2ccccc2)cc1 | 9.55 | 16.9 | 9.14 | 22.6 | 16.4
CCc1nccnc1C(=O)/C=C/c1ccc(C)cc1 | 9.32 | 6.26 | 10.5 | 10 | 7.33
CCN(CC)c1ccc(/C=C/C(=O)c2cnccn2)cc1 | > 50 | > 50 | > 50 | > 50 | > 50
O=C(/C=C/c1ccc(Cl)cc1Cl)c1cnccn1 | 8.31 | > 50 | 6.54 | 6.57 | > 50
Cc1nccnc1C(=O)/C=C/c1ccccc1F | 22.6 | 10.2 | 5.5 | 5.38 | 10.7
O=C(/C=C/c1ccc(Cl)cc1)c1cnccn1 | 11.5 | 9.91 | 10.2 | 12.3 | 10.4
O=C(/C=C/c1ccc(F)cc1)c1cnccn1 | > 50 | > 50 | > 50 | > 50 | > 50
O=C(/C=C/c1ccccc1Br)c1cnccn1 | 11.6 | 12.1 | 15.5 | 8.94 | 14.1
CCc1nccnc1C(=O)/C=C/c1ccc(F)cc1F | 8.02 | 5.24 | 5.71 | 25.7 | 7.97
O=C(/C=C/c1ccc(-c2ccccc2)cc1)c1cnccn1 | 31.8 | 16.6 | > 50 | > 50 | 16.3

Stronger by IC50 (U-937), values ahead:

IC50 (U-937) [µM] | IC50 (SK-OV-3) [µM] | IC50 (THP-1) [µM] | Compound | IC50 (KG-1) [µM] | IC50 [1] [µM]
1.58 | 3.5 | 1.56 | CCc1nccnc1C(=O)/C=C/c1cccc([N+](=O)[O-])c1 | 2.16 | 2.67
6.89 | 4.52 | 7.78 | CCc1nccnc1C(=O)/C=C/c1cccc(C)c1 | 10.3 | 5.6
4.45 | 4.05 | 3.44 | CCc1nccnc1C(=O)/C=C/c1ccccc1N1CCOCC1 | 5.46 | 3.96
5.24 | 11 | 6.02 | CCc1nccnc1C(=O)/C=C/c1ccc(OC)cc1 | 22.7 | 9.88
1.58 | 7.93 | 4.57 | CCc1nccnc1C(=O)/C=C/c1ccccc1Br | 3.58 | 8.35
1.58 | 1.63 | 1.64 | Cc1nccnc1C(=O)/C=C/c1cccc(Br)c1 | 0.08 | 1.46
5.91 | 5.06 | 4.45 | CCc1nccnc1C(=O)/C=C/c1ccccc1Cl | 3.17 | 5.58
2.55 | 2.59 | 4.97 | Cc1ccccc1/C=C/C(=O)c1nccnc1C | 13 | 3.8
4.66 | 6.39 | 9.16 | Cc1nccnc1C(=O)/C=C/c1ccc(Cl)cc1Cl | 7.67 | 6.71
7.76 | 33 | 21.6 | CCc1nccnc1C(=O)/C=C/C=C/c1ccccc1 | 19.1 | 34
1.99 | 4.54 | 23.8 | CCc1nccnc1C(=O)/C=C/c1ccccc1 | 3.71 | 5.4
6.87 | 9.99 | 2.02 | O=C(/C=C/c1cc2c(cc1[N+](=O)[O-])OCO2)c1cnccn1 | 11 | 6.57
2.41 | 4.39 | 2.12 | Cc1nccnc1C(=O)/C=C/c1cccc(F)c1 | 1.93 | 5.33
2.08 | 4.49 | 0.72 | Cc1nccnc1C(=O)/C=C/c1ccc(C#N)cc1 | 1.01 | 4.63
2.6 | 3.83 | 1.93 | Cc1ccc(/C=C/C(=O)c2nccnc2C)cc1 | 3.83 | 3.3
7.06 | 6.48 | 8.37 | CSc1ccc(/C=C/C(=O)c2cnccn2)cc1 | 5.56 | 8.03
1.46 | 2.49 | 1.5 | CCc1nccnc1C(=O)/C=C/c1ccccc1[N+](=O)[O-] | 3.68 | 4.12
3.63 | 5.1 | 5.89 | Cc1nccnc1C(=O)/C=C/c1ccc2c(c1)OC(F)(F)O2 | 6.52 | 6.11
2.23 | 3.42 | 3.52 | CCc1nccnc1C(=O)/C=C/c1ccccc1F | 3.07 | 3.67
3.39 | 4.29 | 3.19 | CCc1nccnc1C(=O)/C=C/c1cc2c(cc1[N+](=O)[O-])OCO2 | 9.24 | 4.75
2.36 | 3.08 | 1.76 | Cc1nccnc1C(=O)/C=C/c1ccccc1Cl | 1.26 | 2.94
3.37 | 2.37 | 5 | Cc1cccc(/C=C/C(=O)c2nccnc2C)c1 | 5.43 | 1.55
0.66 | 4.26 | 6.22 | CCc1nccnc1C(=O)/C=C/c1cccc(F)c1 | 3.47 | 6.34
1.6 | 2.02 | 1.35 | Cc1nccnc1C(=O)/C=C/c1cccc(Cl)c1 | 2.15 | 1.57
1.94 | 3.42 | 1.38 | CCc1nccnc1C(=O)/C=C/c1ccc(S(C)(=O)=O)cc1 | 3.64 | 6.19
